PubChem BioAssay AID1919002 (Molecular Pharmacology Branch, DTP, NCI, 2023)
Where “and” joins values, the source holds several entries; their conditions need not be identical. Equal entries are not always repeated. One block for each compound: values may come before it.

System: 743489-274-T-PDC complex spheroid growth
Test: Anticancer human tumor 743489-274-T-PDC patient-derived renal cell carcinoma cell line growth inhibition [AhR]
Settings: for viability, T/C: stronger effect = lower value
How it was run: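 Agents were dosed in half-log steps down from roughly clinical Cmax, or from 10 microM where Cmax was unknown, alone and with AhR antagonists. Read-out: percent test/control growth of tumor spheroids containing HUVEC and MSC stromal cells.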

[1] = curve of first compound, second compound 0.1 µM
[2] = curve of first compound, second compound 0.316 µM
[3] = curve of first compound, second compound 1 µM
[4] = curve of first compound, second compound 3.16 µM
[5] = curve of first compound, second compound 10 µM
[6] = second compound 0.1 µM, first compound 0.00949 µM
[7] = second compound 0.1 µM, first compound 0.03 µM
[8] = second compound 0.1 µM, first compound 0.0949 µM
[9] = second compound 0.1 µM, first compound 0.3 µM
[10] = second compound 0.316 µM, first compound 0.00949 µM
[11] = second compound 0.316 µM, first compound 0.03 µM
[12] = second compound 0.316 µM, first compound 0.0949 µM
[13] = second compound 0.316 µM, first compound 0.3 µM
[14] = second compound 1 µM, first compound 0.00949 µM
[15] = second compound 1 µM, first compound 0.03 µM
[16] = second compound 1 µM, first compound 0.0949 µM
[17] = second compound 1 µM, first compound 0.3 µM
[18] = second compound 3.16 µM, first compound 0.00949 µM
[19] = second compound 3.16 µM, first compound 0.03 µM
[20] = second compound 3.16 µM, first compound 0.0949 µM
[21] = second compound 3.16 µM, first compound 0.3 µM
[22] = second compound 10 µM, first compound 0.00949 µM
[23] = second compound 10 µM, first compound 0.03 µM
[24] = second compound 10 µM, first compound 0.0949 µM
[25] = second compound 10 µM, first compound 0.3 µM
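Further: spheroids exposed to agents for 7 days before readout.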
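Wherever viability, T/C is given: 100% = DMSO vehicle control wells.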

- IC50 [1]: > 3000 nM
- IC50 [2]: > 3000 nM
- IC50 [3]: > 3000 nM
- IC50 [4]: > 3000 nM
- IC50 [5]: > 3000 nM
Compound: CCN(c1cc(-c2ccc(CN3CCOCC3)cc2)cc(C(=O)NCc2c(C)cc(C)[nH]c2=O)c1C)C1CCOCC1 + CC(CO)NC(=O)c1cc(-c2ccc(Cl)cc2)nn(-c2cnn(C)c2)c1=O
- viability, T/C [6]: 103%
- viability, T/C [7]: 103%
- viability, T/C [8]: 99.6%
- viability, T/C [9]: 93.5%
- viability, T/C (second compound 0.1 µM, first compound 0.949 µM): 93.8%
- viability, T/C (second compound 0.1 µM, first compound 3 µM): 112%
- viability, T/C [10]: 97.6%
- viability, T/C [11]: 96.5%
- viability, T/C [12]: 103%
- viability, T/C [13]: 102%
- viability, T/C (second compound 0.316 µM, first compound 0.949 µM): 90.5%
- viability, T/C (second compound 0.316 µM, first compound 3 µM): 92.6%
- viability, T/C [14]: 104%
- viability, T/C [15]: 102%
- viability, T/C [16]: 107%
- viability, T/C [17]: 92.4%
- viability, T/C (second compound 1 µM, first compound 0.949 µM): 94%
- viability, T/C (second compound 1 µM, first compound 3 µM): 106%
- viability, T/C [18]: 84.4%
- viability, T/C [19]: 92.3%
- viability, T/C [20]: 103%
- viability, T/C [21]: 82.6%
- viability, T/C (second compound 3.16 µM, first compound 0.949 µM): 92.7%
- viability, T/C (second compound 3.16 µM, first compound 3 µM): 98.8%
- viability, T/C [22]: 105%
- viability, T/C [23]: 106%
- viability, T/C [24]: 91.7%
- viability, T/C [25]: 104%
- viability, T/C (second compound 10 µM, first compound 0.949 µM): 101%
- viability, T/C (second compound 10 µM, first compound 3 µM): 91.1%

- IC50 [1]: > 100 nM
- IC50 [2]: > 100 nM
- IC50 [3]: > 100 nM
- IC50 [4]: > 100 nM
- IC50 [5]: > 100 nM
Compound: CC[C@@]1(O)C(=O)OCc2c1cc1n(c2=O)Cc2cc3c(CN(C)C)c(O)ccc3nc2-1 + Cc1ccccc1N=Nc1ccc(NC(=O)c2ccnn2C)c(C)c1
- viability, T/C (second compound 0.1 µM, first compound 0.000316 µM): 98.8%
- viability, T/C (second compound 0.1 µM, first compound 0.001 µM): 98.7%
- viability, T/C (second compound 0.1 µM, first compound 0.00316 µM): 111%
- viability, T/C (second compound 0.1 µM, first compound 0.01 µM): 95.8%
- viability, T/C (second compound 0.1 µM, first compound 0.0316 µM): 89.3%
- viability, T/C (second compound 0.1 µM, first compound 0.1 µM): 80.9%
- viability, T/C (second compound 0.316 µM, first compound 0.000316 µM): 98.2%
- viability, T/C (second compound 0.316 µM, first compound 0.001 µM): 105%
- viability, T/C (second compound 0.316 µM, first compound 0.00316 µM): 106%
- viability, T/C (second compound 0.316 µM, first compound 0.01 µM): 96.6%
- viability, T/C (second compound 0.316 µM, first compound 0.0316 µM): 89.3%
- viability, T/C (second compound 0.316 µM, first compound 0.1 µM): 85.9%
- viability, T/C (second compound 1 µM, first compound 0.000316 µM): 89.1%
- viability, T/C (second compound 1 µM, first compound 0.001 µM): 94%
- viability, T/C (second compound 1 µM, first compound 0.00316 µM): 92.6%
- viability, T/C (second compound 1 µM, first compound 0.01 µM): 81.1%
- viability, T/C (second compound 1 µM, first compound 0.0316 µM): 87%
- viability, T/C (second compound 1 µM, first compound 0.1 µM): 77.4%
- viability, T/C (second compound 3.16 µM, first compound 0.000316 µM): 87.4%
- viability, T/C (second compound 3.16 µM, first compound 0.001 µM): 81.2%
- viability, T/C (second compound 3.16 µM, first compound 0.00316 µM): 93.3%
- viability, T/C (second compound 3.16 µM, first compound 0.01 µM): 90.4%
- viability, T/C (second compound 3.16 µM, first compound 0.0316 µM): 90.4%
- viability, T/C (second compound 3.16 µM, first compound 0.1 µM): 79.9%
- viability, T/C (second compound 10 µM, first compound 0.000316 µM): 88.9%
- viability, T/C (second compound 10 µM, first compound 0.001 µM): 80.7%
- viability, T/C (second compound 10 µM, first compound 0.00316 µM): 87.4%
- viability, T/C (second compound 10 µM, first compound 0.01 µM): 86.2%
- viability, T/C (second compound 10 µM, first compound 0.0316 µM): 80.7%
- viability, T/C (second compound 10 µM, first compound 0.1 µM): 63.5%

- IC50 [1]: 21.3 nM
- IC50 [2]: 21.5 nM
- IC50 [3]: 19.8 nM
- IC50 [4]: 18.2 nM
- IC50 [5]: 16.6 nM
Compound: CC(C)CC(NC(=O)C(Cc1ccccc1)NC(=O)c1cnccn1)B(O)O (configuration not stated) + CC(CO)NC(=O)c1cc(-c2ccc(Cl)cc2)nn(-c2cnn(C)c2)c1=O
- viability, T/C (second compound 0.1 µM, first compound 0.000949 µM): 106%
- viability, T/C (second compound 0.1 µM, first compound 0.003 µM): 102%
- viability, T/C [6]: 104%
- viability, T/C [7]: 27.3%
- viability, T/C [8]: 10.7%
- viability, T/C [9]: 4.68%
- viability, T/C (second compound 0.316 µM, first compound 0.000949 µM): 90.2%
- viability, T/C (second compound 0.316 µM, first compound 0.003 µM): 102%
- viability, T/C [10]: 102%
- viability, T/C [11]: 30.3%
- viability, T/C [12]: 11.1%
- viability, T/C [13]: 4.81%
- viability, T/C (second compound 1 µM, first compound 0.000949 µM): 90.5%
- viability, T/C (second compound 1 µM, first compound 0.003 µM): 104%
- viability, T/C [14]: 94.9%
- viability, T/C [15]: 24.6%
- viability, T/C [16]: 9.8%
- viability, T/C [17]: 4.5%
- viability, T/C (second compound 3.16 µM, first compound 0.000949 µM): 94.3%
- viability, T/C (second compound 3.16 µM, first compound 0.003 µM): 96.7%
- viability, T/C [18]: 87.1%
- viability, T/C [19]: 21.2%
- viability, T/C [20]: 10.7%
- viability, T/C [21]: 3.25%
- viability, T/C (second compound 10 µM, first compound 0.000949 µM): 98%
- viability, T/C (second compound 10 µM, first compound 0.003 µM): 111%
- viability, T/C [22]: 85.4%
- viability, T/C [23]: 12.6%
- viability, T/C [24]: 10.3%
- viability, T/C [25]: 4.28%

- IC50 (curve of compound): 51.3 nM and 24.9 nM and 19 nM
Compound: CC(C)CC(NC(=O)C(Cc1ccccc1)NC(=O)c1cnccn1)B(O)O (configuration not stated)
- viability, T/C (compound 0.000949 µM): 99.1% and 101% and 98%
- viability, T/C (compound 0.003 µM): 95.6% and 109% and 101%
- viability, T/C (compound 0.00949 µM): 106% and 110% and 101%
- viability, T/C (compound 0.03 µM): 82.7% and 39.1% and 17.3%
- viability, T/C (compound 0.0949 µM): 12.9% and 18.7% and 11.8%
- viability, T/C (compound 0.3 µM): 11.7% and 8.88% and 4.65%
